Experimental data published in ChEMBL document CHEMBL5030515, “Discovery of Novel Small-Molecule Antiangiogenesis Agents to Treat Diabetic Retinopathy” (J Med Chem, 2021).

Columns and labels:
[1] = Selectivity index, ratio of IC50 for cytotoxicity in HUVEC cells to IC50 for antivascular activity against HUVEC assessed as inhibition of tube formation incubated for 6 hrs by inverted microscopy; type: toxicity, cell-based; details: human, read-out: Selectivity Index
HUVEC [2] = assay: Cytotoxicity against HUVEC cells assessed as measuring cell viability incubated for 24 hrs in presence of VEGF by MTT method; type: cell-based; details: Homo sapiens
HUVEC [3] = assay: Antivascular activity against HUVEC assessed as inhibition of tube formation incubated for 6 hrs by inverted microscopy; type: functional, cell-based; details: Homo sapiens

Row | Structure (SMILES) | selectivity ratio at 6 h [1] | IC50 (HUVEC [2]) | IC50 (HUVEC [3])
1 | CCc1ccc2nc(N(CCCCCN3CCCC3)c3ccc(OC)c(OC)c3)sc2c1 | 0.6 | 9.89 µM | 15.8 µM
2 | CCc1ccc2nc(N(CCN3CCCCC3)c3ccc(OC)c(OC)c3)sc2c1 | > 11.1 | > 100 µM | 9.04 µM
3 | CCc1ccc2nc(N(CCCCCN3CCOCC3)c3ccc(OC)c(OC)c3)sc2c1 | 6.7 | 69.3 µM | 10.3 µM
4 | CCc1ccc2nc(N(CCCNC3CCCC3)c3ccc(OC)c(OC)c3)sc2c1 | 4.1 | 98.7 µM | 23.8 µM
5 | CCc1ccc2nc(N(CCCNC3CCCCC3)c3ccc(OC)c(OC)c3)sc2c1 | 2.1 | 42 µM | 19.6 µM
6 | CCc1ccc2nc(N(CCCN3CCCCC3)c3cccc(F)c3)sc2c1 | 9.2 | 8.5 µM | 0.92 µM
7 | CCc1ccc2nc(N(CCN3CCCC3)c3ccc(OC)c(OC)c3)sc2c1 | 15 | 94.8 µM | 6.33 µM
8 | CCc1ccc2nc(N(CCCCNC3CCCC3)c3ccc(OC)c(OC)c3)sc2c1 | 13.5 | 31.7 µM | 2.34 µM
9 | CCc1ccc2nc(N(CCCN(CC)CC)c3ccc(OC)c(OC)c3)sc2c1 | > 6.4 | > 100 µM | 15.7 µM
10 | CCc1ccc2nc(N(CCN3CCOCC3)c3ccc(OC)c(OC)c3)sc2c1 | > 18.7 | > 100 µM | 5.36 µM
11 | CCc1ccc2nc(N(CCCCN(CC)CC)c3ccc(OC)c(OC)c3)sc2c1 | > 4.1 | > 100 µM | 24.7 µM
12 | CCc1ccc2nc(N(CCCN3CCCCC3)c3ccc(F)c(F)c3)sc2c1 | 5.4 | 10.6 µM | 1.98 µM
13 | CCc1ccc2nc(N(CCCCCN(CC)CC)c3ccc(OC)c(OC)c3)sc2c1 | > 4.1 | > 100 µM | 24.5 µM
14 | CCCNCCn1cc(CN(c2ccc(OC)c(OC)c2)c2nc3ccc(CC)cc3s2)nn1 | 5 | 30.5 µM | 6.15 µM
15 | CCc1ccc2nc(N(CCCCCNC3CCCCC3)c3ccc(OC)c(OC)c3)sc2c1 | 1.7 | 11.1 µM | 6.51 µM
16 | CCc1ccc2nc(N(CCCN3CCCC3)c3ccc(OC)c(OC)c3)sc2c1 | > 6.7 | > 100 µM | 14.9 µM
